Source: patent US9232788B2, “Fumigation methods” (Honeywell International Inc., priority 2011, dated 2016)
Entries after “also recorded” stand apart in the source; their conditions may differ.

Experiments:
[1] = test system: Lolium multiflorum Lam. seeds; assay: Fumigant test on weed seeds in soil, seed germination count; type: in vivo; conditions: for Seeds Germinated Loliium multiflorum Lam.: fifteen seeds in soil, two days treatment, counted after 10 days; for seed germination (in words): all experimental concentrations (80, 160, 440 ml)
Protocol: In particular, in 440 mL pressure vessels, fourteen seeds of Abutilon theophrasti Medik. and fifteen seeds of Lolium multiflorum Lam. were thoroughly mixed with 50 mL (approximately 30 grams) of soil and 6 mL of water. The filled vessels were kept at room temperature for 20-24 hr to allow the seeds to imbibe water before treatment. The vessels were sealed and evacuated, and then 80 ml, 160 ml and 440 ml respectively of gaseous 1225zc was added. The vessels were thoroughly mixed and placed horizontally on the laboratory bench at ambient temperature for two days. The contents of each bottle were transferred to a plastic sterile Petri dish containing 7 mL of water. The Petri dishes were sealed with parafilm and incubated in the laboratory at ambient temperature. After 10 days, the number of germinated seeds was counted. […]

[2] = test system: Abutilon theophrasti Medik. seeds; assay: as above; type: in vivo; conditions: for Seeds Germinated Abutilon theophrastic Medik.: fourteen seeds in soil, two days treatment, counted after 10 days; for seed germination (in words): all experimental concentrations (80, 160, 440 ml)
Protocol: In particular, in 440 mL pressure vessels, fourteen seeds of Abutilon theophrasti Medik. and fifteen seeds of Lolium multiflorum Lam. were thoroughly mixed with 50 mL (approximately 30 grams) of soil and 6 mL of water. The filled vessels were kept at room temperature for 20-24 hr to allow the seeds to imbibe water before treatment. The vessels were sealed and evacuated, and then 80 ml, 160 ml and 440 ml respectively of gaseous 1225zc was added. The vessels were thoroughly mixed and placed horizontally on the laboratory bench at ambient temperature for two days. The contents of each bottle were transferred to a plastic sterile Petri dish containing 7 mL of water. The Petri dishes were sealed with parafilm and incubated in the laboratory at ambient temperature. After 10 days, the number of germinated seeds was counted.
The same experiment was performed as described in Example 1 except that hexafluoropropene (HFP) was used as the active fumigant composition.

[3] = Volatility of aqueous fumigant compositions with and without surfactant (weight loss); type: physicochemical; conditions: with Tween 80 nonionic surfactant versus without; 20° C., vented, weight loss every 30 seconds
Protocol: Experimentation was carried out to determine the volatility of aqueous fumigant compositions, both with and without inclusion of a surfactant. In each case, the fluorocarbon was placed in a chilled 500 ml Fischer Porter tube that was equipped with a vent to remove any gases. The vessel was cooled to 0° C. and was charged with varying amounts of water, fluorocarbon and surfactant. The temperature was equilibrated to 20° C. and the reactor was placed on a balance. The vent tube was opened and the weight loss was recorded every 30 seconds.
In analyzing the effects of adding surfactant to an aqueous solution of HFP, 10.11 grams of HFP was added to 39.71 grams of water. In a separate experiment, 9.83 grams of HFP and 4.03 grams of Tween™ 80 were added to 40.08 grams of water. FIG. 1 provides a graphical representation of the numerical data comparing the volatility of an aqueous solution of HFP, both with and without inclusion of the Tween™ 80 nonionic surfactant.
In analyzing the effects of adding surfactant to an aqueous solution of 1225zc, 10.78 grams of 1225zc were added to 39.69 grams of water. In a separate experiment, 10.70 grams of 1225zc and 4.08 grams of Tween™ 80 were added to 40.15 grams of water. […]

[4] = 80 ml gaseous fumigant in 440 mL vessel
[5] = 160 ml gaseous fumigant in 440 mL vessel
[6] = 440 ml gaseous fumigant in 440 mL vessel

FC(F)=CC(F)(F)F [1225zc, 1,1,3,3,3-pentafluoropropene]
Seeds Germinated Loliium multiflorum Lam. [1, 4]: 0
Seeds Germinated Loliium multiflorum Lam. [1, 5]: 0
Seeds Germinated Loliium multiflorum Lam. [1, 6]: 0
seed germination (in words) [1]: none
seed germination (in words) ([1]; listed as 1125c): completely prevented seed germination
Seeds Germinated Abutilon theophrastic Medik. [2, 4]: 0
Seeds Germinated Abutilon theophrastic Medik. [2, 5]: 0
Seeds Germinated Abutilon theophrastic Medik. [2, 6]: 0
seed germination (in words) [2]: none
seed germination (in words) ([2]; listed as 1125c): completely prevented seed germination
retention of the fluorocarbon in aqueous solution [3]: longer retention

FC(F)=C(F)C(F)(F)F [HFP, hexafluoropropene]
Seeds Germinated Loliium multiflorum Lam. [1, 4]: 0
Seeds Germinated Loliium multiflorum Lam. [1, 5]: 0
Seeds Germinated Loliium multiflorum Lam. [1, 6]: 0
seed germination (in words) [1]: completely prevented seed germination; also recorded: no germination occurred
Seeds Germinated Abutilon theophrastic Medik. [2, 4]: 0
Seeds Germinated Abutilon theophrastic Medik. [2, 5]: 0
Seeds Germinated Abutilon theophrastic Medik. [2, 6]: 0
seed germination (in words) [2]: completely prevented seed germination; also recorded: no germination occurred
retention of the fluorocarbon in aqueous solution [3]: longer retention
